Here are results for seven compounds from publication PMC12030650, “Synthesis, Antitumor Activities, and Apoptosis-Inducing Activities of Schiff’s Bases Incorporating Imidazolidine-2,4-dione Scaffold: Molecular Docking Studies and Enzymatic Inhibition Activities” (Pharmaceuticals, 2025).

“And” between values parts separate entries of the source, which are not always exact repeats. Equal values may be shown once. Read-outs that look alike come from different tables or passages of the source.

Series [1] relates to WI-38 normal fibroblast cell line. Put plainly: MTT cytotoxicity against normal human cells. Format: cell-based. Particulars: normal fibroblast WI-38; for IC50: Homo sapiens, read-out: IC50 WI-38. How it is done:
The evaluation was conducted using a 3-(4,5-dimethylthiazol-2-yl)-2,5-diphenyltetrazolium bromide (MTT) assay, as described by the authors of [50, 51]. The cell lines were obtained from ATCC. For comparative purposes, standard drugs, such as doxorubicin and erlotinib, were employed.

The target in series [2] is T1, EGFR (Homo sapiens, UniProt P00533).
T1 construct: purchased BPS Bioscience 40321
T1 sequence (P00533 25-1210): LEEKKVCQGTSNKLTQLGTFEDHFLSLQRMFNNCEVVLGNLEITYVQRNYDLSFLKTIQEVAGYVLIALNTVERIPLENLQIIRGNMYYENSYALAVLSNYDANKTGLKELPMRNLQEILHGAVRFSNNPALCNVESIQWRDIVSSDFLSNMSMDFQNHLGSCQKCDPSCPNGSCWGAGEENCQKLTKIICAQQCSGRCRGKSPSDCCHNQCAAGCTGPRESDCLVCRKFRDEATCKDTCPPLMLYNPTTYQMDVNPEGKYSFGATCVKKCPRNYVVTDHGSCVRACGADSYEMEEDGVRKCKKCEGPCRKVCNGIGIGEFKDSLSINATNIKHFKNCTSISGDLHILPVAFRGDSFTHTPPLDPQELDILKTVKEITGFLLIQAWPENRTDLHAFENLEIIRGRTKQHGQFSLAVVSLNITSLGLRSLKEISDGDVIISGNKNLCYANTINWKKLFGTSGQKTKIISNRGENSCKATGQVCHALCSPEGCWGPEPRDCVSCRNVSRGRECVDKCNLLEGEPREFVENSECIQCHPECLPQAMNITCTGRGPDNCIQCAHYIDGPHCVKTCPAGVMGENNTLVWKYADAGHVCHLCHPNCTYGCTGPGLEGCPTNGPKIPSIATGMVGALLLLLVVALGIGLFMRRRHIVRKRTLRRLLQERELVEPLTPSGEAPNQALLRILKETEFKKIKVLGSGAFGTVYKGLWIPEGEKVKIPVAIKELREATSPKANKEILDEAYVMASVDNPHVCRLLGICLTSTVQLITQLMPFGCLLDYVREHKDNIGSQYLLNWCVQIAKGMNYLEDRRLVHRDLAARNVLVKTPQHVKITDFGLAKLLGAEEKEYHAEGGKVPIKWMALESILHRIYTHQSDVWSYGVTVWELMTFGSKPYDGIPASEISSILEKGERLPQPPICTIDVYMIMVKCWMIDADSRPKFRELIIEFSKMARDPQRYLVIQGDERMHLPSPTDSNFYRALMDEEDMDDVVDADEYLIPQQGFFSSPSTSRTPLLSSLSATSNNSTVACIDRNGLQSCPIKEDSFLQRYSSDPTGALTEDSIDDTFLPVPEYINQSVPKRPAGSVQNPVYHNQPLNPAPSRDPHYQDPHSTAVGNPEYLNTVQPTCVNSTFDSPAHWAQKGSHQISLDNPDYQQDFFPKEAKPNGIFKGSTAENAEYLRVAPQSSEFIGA
Put plainly: In vitro luminescent EGFR tyrosine kinase assay (Kinase-Glo Max). Particulars: read-out: Kinase Inhibition IC50 EGFR. The format is biochemical. For orientation: Kinase-Glo measures the ATP left after a reaction by luminescence.

A further series concerns the target T2, HER2 (Homo sapiens, UniProt P04626).
T2 construct: purchased BPS Bioscience 40721
Put plainly: In vitro luminescent HER2 tyrosine kinase assay (Kinase-Glo Max). The format is biochemical. Particulars: read-out: Kinase Inhibition IC50 HER2. The procedure:
[…]. Erlotinib was probed as the standard drug in the EGFR inhibition assay, while lapatinib was tested as the […]. […].
EGFR and HER2 kinase inhibitory activities were determined based on the manufacturer’s guidelines (EGFR Kinase Assay Kit Catalog no. 40321 and HER2 Kinase Assay Kit Catalog no. 40721, BPS Bioscience, San Diego, CA).

Series [3] concerns breast adenocarcinoma (MCF-7). Put plainly: MTT cytotoxicity assay, MCF-7. The note with it: for IC50: Homo sapiens, MCF7, read-out: IC50 MCF-7; for SI (selectivity index) MCF-7: WI-38 vs MCF-7. Background: Formazan colour is commonly taken as a measure of viable cells.
For a further series, the system named is hepatoblastoma (HePG-2). Put plainly: MTT cytotoxicity assay, HePG-2. Particulars: for IC50: Homo sapiens, HepG2, read-out: IC50 HePG-2; for SI (selectivity index) HePG-2: WI-38 vs HePG-2.
For series [4], the system named is human colorectal carcinoma (HCT-116). Put plainly: MTT cytotoxicity assay, HCT-116. Particulars: for IC50: Homo sapiens, HCT-116, read-out: IC50 HCT-116; for SI (selectivity index) HCT-116: WI-38 vs HCT-116.
For series [5], the system named is HCT-116, HePG-2, and MCF-7. Put plainly: MTT cytotoxicity, summary over the examined cancer cell lines. The note with it: Homo sapiens.
The subject of another series is various cell lines. The arrangement: method as in doi:10.1007/s00044-013-0597-1. Particulars: read-out: cytotoxic effect on various cell lines IC50; cited from earlier work.
Series [6] deals with anti-apoptotic protein MCL-1 in MCF-7. Put plainly: MCL-1 expression in MCF-7 cells (ELISA). The format is cell-based, human. The procedure: (§1) Apoptosis is regulated by intrinsic pathways such as the B-cell lymphoma-2 (BCL-2) family. […] MCL-1, one of the BCL-2 family members, is likely to have a significant role in cell death. The expression of MCL-1 and BCL-2 in MCF-7 cells treated with different concentrations was studied.
(§2) Apoptosis of the MCF-7 cancer cell line was measured using the Human MCL1eia kit (ELISA Kit) for the MCL-1 enzyme assay and the Invitrogen Zymed® Bcl-2 ELISA Kit for the BCL-2 enzyme assay. The ROBONIK P2000 ELISA READER was used for analysis.

In series [7] the test system is anti-apoptotic protein BCL-2 in MCF-7. Put plainly: BCL-2 expression in MCF-7 cells (ELISA). The format is cell-based, human. The procedure: as §1, §2
Background: An ELISA detects its analyte on a solid surface through an enzyme-linked reagent.

The test system of another series is MCF-7 cell line. Put plainly: Cell cycle analysis (propidium iodide, flow cytometry). Format: cell-based, human. An excerpt: Cell cycle analysis is used to quantify DNA content distribution via flow cytometry at various cell cycle stages (pre-G1, G1, S, and G2/M). Compound 24 was selected to analyze its effect on cell cycle progression in the MCF-7 cell line at different concentrations.
Cancer cell line MCF-7 was stained with ab139418_Propidium Iodide (DNA stain) and analyzed using a FACSCalibur flow cytometer.

Series [8] concerns breast cancer cell line MCF-7. Also on record: method as in doi:10.1016/j.rechem.2023.101118. The note with it: cited from earlier work.
Series [9] has as its target T1, EGFR. The arrangement: method as in PMID 31297023. The note with it: read-out: kinase inhibition of EGFR IC50; cited from earlier work.
[10] abbreviates: read-out: average IC50 versus the examined cell lines.

T2 sequence (P04626 23-1255): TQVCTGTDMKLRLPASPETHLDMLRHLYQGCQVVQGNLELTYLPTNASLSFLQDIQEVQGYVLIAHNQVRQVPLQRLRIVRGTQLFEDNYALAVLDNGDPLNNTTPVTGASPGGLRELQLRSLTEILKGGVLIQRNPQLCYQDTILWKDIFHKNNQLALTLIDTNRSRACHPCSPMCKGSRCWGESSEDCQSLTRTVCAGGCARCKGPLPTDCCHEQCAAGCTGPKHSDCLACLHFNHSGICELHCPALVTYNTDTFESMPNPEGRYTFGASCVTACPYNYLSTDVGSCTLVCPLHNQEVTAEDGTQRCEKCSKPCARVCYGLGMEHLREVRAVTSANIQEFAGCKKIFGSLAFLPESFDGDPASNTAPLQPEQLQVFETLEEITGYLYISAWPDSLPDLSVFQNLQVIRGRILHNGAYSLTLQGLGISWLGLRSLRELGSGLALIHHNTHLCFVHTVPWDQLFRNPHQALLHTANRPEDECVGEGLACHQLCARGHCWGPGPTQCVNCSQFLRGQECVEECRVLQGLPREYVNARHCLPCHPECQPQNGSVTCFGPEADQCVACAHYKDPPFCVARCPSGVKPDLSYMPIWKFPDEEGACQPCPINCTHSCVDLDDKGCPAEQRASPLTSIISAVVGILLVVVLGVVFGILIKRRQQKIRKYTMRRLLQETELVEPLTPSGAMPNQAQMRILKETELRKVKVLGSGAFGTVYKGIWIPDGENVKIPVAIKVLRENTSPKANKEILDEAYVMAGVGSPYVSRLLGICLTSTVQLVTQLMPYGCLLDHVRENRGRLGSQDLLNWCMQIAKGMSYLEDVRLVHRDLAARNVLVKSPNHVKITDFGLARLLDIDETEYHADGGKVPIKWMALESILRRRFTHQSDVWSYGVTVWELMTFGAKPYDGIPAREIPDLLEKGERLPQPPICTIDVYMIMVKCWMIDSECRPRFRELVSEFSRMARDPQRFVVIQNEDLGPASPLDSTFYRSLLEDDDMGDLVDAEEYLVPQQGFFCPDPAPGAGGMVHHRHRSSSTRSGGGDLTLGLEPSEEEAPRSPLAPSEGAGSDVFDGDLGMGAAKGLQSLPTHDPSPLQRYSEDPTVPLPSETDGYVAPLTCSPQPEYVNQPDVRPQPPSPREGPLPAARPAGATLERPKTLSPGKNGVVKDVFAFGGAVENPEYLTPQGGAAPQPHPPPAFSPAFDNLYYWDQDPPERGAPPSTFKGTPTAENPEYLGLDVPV

In general, IC50 refers to the concentration that gives 50% inhibition. In the case of `CC(=NNC(=O)CN1C(=O)NC(c2ccccc2)(c2ccccc2)C1=O)c1ccc(OC(F)(F)F)cc1` [Compound 13, 2-(2,5-Dioxo-4,4-diphenylimidazolidin-1-yl)-N′-(1-(4-(trifluoromethoxy)phenyl)ethylidene)acetohydrazide], the 50% inhibitory concentration (IC50) is 45.4 µM in [1]; 0.61 ± 0.02 µM on EGFR [2]; 0.28 ± 0.01 µM at HER2; 9.58 ± 0.8 µM in series [3]; 13.9 ± 1.2 µM in the series with hepatoblastoma (HePG-2); 20.1 ± 1.7 µM in series [4]. Also, the IC50 in series [5] (setting [10]) came to 14.5 µM. The “IC50 WI-38” value in [1] is “low cytotoxicity”. Moreover, the “SI (selectivity index) MCF-7” value in series [3] is 4.7 and 4.73. For the same compound, in the series on hepatoblastoma (HePG-2), the “SI (selectivity index) HePG-2” value is 3.2 and 3.25. In addition, in series [4], the “SI (selectivity index) HCT-116” value was 2.2 and 2.25.
On to `O=C(CN1C(=O)NC(c2ccccc2)(c2ccccc2)C1=O)c1ccc(N2CCCCC2)cc1` [Compound 2], for which, in the series with various cell lines, the IC50 was 10 µM.
Regarding `CC(=NNC(=O)CN1C(=O)NC(c2ccccc2)(c2ccccc2)C1=O)c1ccc(Cl)cc1` [Compound 10, N′-(1-(4-Chlorophenyl)ethylidene)-2-(2,5-dioxo-4,4-diphenylimidazolidin-1-yl)acetohydrazide], the IC50 in series [1] turned out to be 54.2 µM; on EGFR [2], 0.67 ± 0.03 µM; at HER2, 0.71 ± 0.02 µM; in series [3], 11.2 ± 0.9 µM; with hepatoblastoma (HePG-2), 10.7 ± 0.9 µM; in series [4], 17.9 ± 1.4 µM. Further, the IC50 in series [5] (setting [10]) is 13.2 µM. In addition, the “IC50 WI-38” value in series [1] is “low cytotoxicity”. The “SI (selectivity index) MCF-7” value in series [3] is 4.8 and 4.84. In addition, the “SI (selectivity index) HePG-2” value in the series on hepatoblastoma (HePG-2) is 5.0 and 5.07. The “SI (selectivity index) HCT-116” value in series [4] is 3.0 and 3.02.
On to `CC(=NNC(=O)CN1C(=O)NC(c2ccccc2)(c2ccccc2)C1=O)c1cccnc1` [Compound 21, 2-(2,5-Dioxo-4,4-diphenylimidazolidin-1-yl)-N′-(1-(pyridin-3-yl)ethylidene)acetohydrazide], for which the IC50 in series [1] worked out at 60.8 µM; at EGFR [2] it was 1.61 ± 0.07 µM; at HER2 it was 1.17 ± 0.04 µM; in series [3] it was 8.61 ± 0.6 µM; in the series with hepatoblastoma (HePG-2), 11.5 ± 1 µM; in series [4], 19.2 ± 1.5 µM. The IC50 in series [5] (setting [10]) amounted to 13.1 µM. In addition, the “IC50 WI-38” value in series [1] is “low cytotoxicity”. In addition, the “SI (selectivity index) MCF-7” value in series [3] is 7.06. In the series on hepatoblastoma (HePG-2), the “SI (selectivity index) HePG-2” value was 5.2 and 5.28. For the same compound, in series [4], the “SI (selectivity index) HCT-116” value is 3.1 and 3.15.
`CC(=NNC(=O)CN1C(=O)NC(c2ccccc2)(c2ccccc2)C1=O)c1ccc2ccccc2c1` [Compound 24, 2-(2,5-Dioxo-4,4-diphenylimidazolidin-1-yl)-N′-(1-(naphthalen-2-yl)ethylidene)acetohydrazide]: the IC50 in series [1] came to 39.5 µM; at EGFR [2] it was 0.07 ± 0.004 µM; on HER2, 0.04 ± 0.001 µM; in series [3] it was 4.92 ± 0.3 µM; in the series on hepatoblastoma (HePG-2), 9.07 ± 0.8 µM; in series [4], 12.8 ± 0.9 µM. Further, the IC50 in series [5] (read-out: IC50 range against the selected cell lines) lay in the range of 4.92 to 20.1 µM. Besides, the “IC50 WI-38” value in series [1] is “low cytotoxicity”. In addition, the MCL-1 expression level in [6] (2 µM) was 715.62 pg/mL; in series [6] (10 μM), 261.20 pg/mL and 261.20 ± 8.97 pg/mL. The BCL-2 expression level in series [7] (2 µM) was 15.55 ng/mL; in [7] (10 μM) it was 8.60 ng/mL and 8.598 ± 0.29 ng/mL. Moreover, the “Comment (cell cycle arrest)” value with MCF-7 cell line is “cell cycle arrest appeared at the G2/M phase”. Further, the “%G0–G1” value is reported as 52.12% in the series with MCF-7 cell line (2 µM) and 50.61% in the series on MCF-7 cell line (10 μM). Moreover, the “%G2/M” value in the series with MCF-7 cell line (2 µM) was determined as 25.43%; in the series with MCF-7 cell line (10 μM) it was 33.46%. The entries for the “%S” value in the series on MCF-7 cell line (2 µM) and with MCF-7 cell line (10 μM) were 22.45% and 15.93%, respectively. The “SI (selectivity index) MCF-7” value in series [3] was 8.0 and 8.03. Besides, the “SI (selectivity index) HePG-2” value in the series on hepatoblastoma (HePG-2) was 4.3 and 4.35. For the same compound, the “SI (selectivity index) HCT-116” value in series [4] is 3.0 and 3.08.
Turning to `O=C(CN1C(=O)NC(c2ccccc2)(c2ccccc2)C1=O)Nc1ccc(S(=O)(=O)Nc2ccccn2)cc1` [Compound 3], the “inhibition of the breast cancer cell line MCF-7” value in series [8] is “around 74%”.
As to `O=C(CN1C(=O)NC(c2ccccc2)(c2ccccc2)C1=O)N/N=C/c1c[nH]c2ccccc12` [Compound 1], the IC50 on EGFR [9] is 0.1 µM.
